In US4965261A, “Substituted benzoxazinorifamycin derivative and antibacterial agent containing the same” (Kanegafuchi Kagaku Kogyo Kabushiki Kaisha, priority 1988, dated 1990):
Values after ≈ are worked out from the molar mass of the structure shown.

Experiments:
[1] = test system: Mycobacterium tuberculosis H37 Rv; experiment: Therapeutic effect on mice experimentally infected with tuberculosis (FIG. 1, groups of 20 mice); conditions: oral, 200 μg/mouse, once a day, six days a week
Source text: In FIG. 1, the point, a, means the time that mice were infected, and the point, b, means the time that the treatment started.

[2] = test system: Mycobacterium smegmatis ATCC 607; experiment: Antibacterial activity, standard method of Japan Society of Chemotherapy (Table 2); type: cell-based; conditions: Mycolicibacterium smegmatis, ATCC607, read-out: Minimal inhibitory concentration
Source text: (§1) Derivative No. in Table 2 corresponds to derivative No. in Table 1.

[3] = test system: Micrococcus luteus IFO 12708; experiment: as above; type: cell-based; conditions: IFO12708, read-out: Minimal inhibitory concentration
Source text: as §1

[4] = test system: Staphylococcus aureus IFO 12732; experiment: as above; type: cell-based; conditions: IFO12732, read-out: Minimal inhibitory concentration
Source text: as §1

[5] = test system: Bacillus subtilis IFO 3134; experiment: as above; type: cell-based; conditions: IFO3134, read-out: Minimal inhibitory concentration
Source text: as §1

[6] = test system: Klebsiella pneumoniae IFO 3512; experiment: as above; type: cell-based; conditions: IFO3512, read-out: Minimal inhibitory concentration
Source text: as §1

[7] = test system: Escherichia coli IFO 12734; experiment: as above; type: cell-based; conditions: IFO12734, read-out: Minimal inhibitory concentration
Source text: as §1

[8] = test system: Mycobacterium tuberculosis H37 Rv; experiment: Antibacterial activity against a tubercle bacillus, two-fold dilution in Kirchner liquid medium; conditions: Kirchner medium with 10% bovine serum, 37° C., 4 weeks
[9] = Plasma concentration after oral administration to mice, bioassay with Micrococcus luteus IFO 12708; type: in vivo, ddY male mice; conditions: mouse, 20 mg/kg
Protocol: The derivatives No. 4 and No. 11 shown in Table 1 were orally administered to ddY male mice (7 weeks), respectively, in a dose of 20 mg/kg. The concentration of the test compound in the plasma was measured by a bioassay method employing Micrococcus luteus IFO 12708 as an assay bacterium according to a usual manner. The results are as follows: As for the derivative No. 4, the concentrations in the plasma after 1 hour, 3 hours, 5 hours and 8 hours from the administration were 17.0 μg/ml, 13.3 μg/ml, 14.5 μg/ml, 4.2 μg/ml, respectively. As for the derivative No. 11, the concentrations in the plasma after 1 hour, 3 hours, 5 hours and 8 hours from the administration were 17.3 μg/ml, 16.2 μg/ml, 13.8 μg/ml and 10.1 μg/ml, respectively.

[10] = test system: Mycobacterium tuberculosis H37 Rv; experiment: Repeated treatment test of mice infected with tuberculosis, survival on fortieth day (groups of 10 mice); conditions: oral, 200 μg/mouse

Structure (SMILES)	therapeutic effect as compared with rifampicin [1]	MIC [2] [µg/mL]	MIC [3] [µg/mL]	MIC [4] [µg/mL]	MIC [5] [µg/mL]	MIC [6] [µg/mL]	MIC [7] [µg/mL]	Minimal inhibitory concentration ([8]; Table 3) [µg/mL]	concentration at 1 h [9] [ng/mL]	concentration at 3 h [9] [ng/mL]	concentration at 5 h [9] [ng/mL]	concentration at 8 h [9] [ng/mL]	Survival rate [10] [%]	dead mice [10]	Minimal inhibitory concentration ([8]; Table 4) [µg/mL]
COC1C=COC2(C)Oc3c(C)c(O)c4c(=O)c(c5oc6cc(N7CCCCC7)ccc6nc-5c4c3C2=O)NC(=O)C(C)=CC=CC(C)C(O)C(C)C(O)C(C)C(OC(C)=O)C1C (stereo not drawn) [Derivative B]	inferior to rifampicin	–	–	–	–	–	–	–	–	–	–	–	–	–	–
CCc1c(N2CCCC2)ccc2nc3c4c5c6c(C)c(O)c4c(=O)c(c-3oc12)NC(=O)C(C)=CC=CC(C)C(O)C(C)C(O)C(C)C(OC(C)=O)C(C)C(OC)C=COC(C)(O6)C5=O (stereo not drawn) [Derivative C]	inferior to rifampicin	–	–	–	–	–	–	–	–	–	–	–	–	–	–
COc1c(N2CCCC2)ccc2nc3c4c5c6c(C)c(O)c4c(=O)c(c-3oc12)NC(=O)C(C)=CC=CC(C)C(O)C(C)C(O)C(C)C(OC(C)=O)C(C)C(OC)C=COC(C)(O6)C5=O (stereo not drawn) [Derivative No. 1]	–	2.5 (≈ 2.83 µM)	0.04 (≈ 0.0452 µM)	≤ 0.02	0.16 (≈ 0.181 µM)	> 10	> 10	0.017 (≈ 0.0192 µM)	–	–	–	–	–	–	–
COc1c(N2CCN(C)CC2)ccc2nc3c4c5c6c(C)c(O)c4c(=O)c(c-3oc12)NC(=O)C(C)=CC=CC(C)C(O)C(C)C(O)C(C)C(OC(C)=O)C(C)C(OC)C=COC(C)(O6)C5=O (stereo not drawn) [Derivative No. 2]	–	1.25 (≈ 1.37 µM)	≤ 0.02	≤ 0.02	≤ 0.02	2.5 (≈ 2.74 µM)	2.5 (≈ 2.74 µM)	0.15 (≈ 0.164 µM)	–	–	–	–	–	–	–
COc1c(N2CCN(CC(C)C)CC2)ccc2nc3c4c5c6c(C)c(O)c4c(=O)c(c-3oc12)NC(=O)C(C)=CC=CC(C)C(O)C(C)C(O)C(C)C(OC(C)=O)C(C)C(OC)C=COC(C)(O6)C5=O (stereo not drawn) [Derivative No. 3]	–	1.25 (≈ 1.31 µM)	0.08 (≈ 0.0838 µM)	≤ 0.02	0.04 (≈ 0.0419 µM)	> 10	> 10	0.017 (≈ 0.0178 µM)	–	–	–	–	–	–	–
CCOc1c(N2CCCC2)ccc2nc3c4c5c6c(C)c(O)c4c(=O)c(c-3oc12)NC(=O)C(C)=CC=CC(C)C(O)C(C)C(O)C(C)C(OC(C)=O)C(C)C(OC)C=COC(C)(O6)C5=O (stereo not drawn) [Derivative No. 4]	–	0.63 (≈ 0.702 µM)	0.04 (≈ 0.0445 µM)	≤ 0.02	0.04 (≈ 0.0445 µM)	> 10	> 10	0.017 (≈ 0.0189 µM)	17000	13300	14500	4200	100	there was not observed any dead mouse	–
CCOc1c(N2CCN(C)CC2)ccc2nc3c4c5c6c(C)c(O)c4c(=O)c(c-3oc12)NC(=O)C(C)=CC=CC(C)C(O)C(C)C(O)C(C)C(OC(C)=O)C(C)C(OC)C=COC(C)(O6)C5=O (stereo not drawn) [Derivative No. 5]	–	1.25 (≈ 1.35 µM)	≤ 0.02	≤ 0.02	≤ 0.02	2.5 (≈ 2.7 µM)	2.5 (≈ 2.7 µM)	0.035 (≈ 0.0378 µM)	–	–	–	–	–	–	–
CCOc1c(N2CCN(CC)CC2)ccc2nc3c4c5c6c(C)c(O)c4c(=O)c(c-3oc12)NC(=O)C(C)=CC=CC(C)C(O)C(C)C(O)C(C)C(OC(C)=O)C(C)C(OC)C=COC(C)(O6)C5=O (stereo not drawn) [Derivative No. 6]	–	0.63 (≈ 0.669 µM)	≤ 0.02	≤ 0.02	≤ 0.02	2.5 (≈ 2.66 µM)	5 (≈ 5.31 µM)	–	–	–	–	–	–	–	0.008 (≈ 0.0085 µM)
CCOc1c(N2CCN(C(C)C)CC2)ccc2nc3c4c5c6c(C)c(O)c4c(=O)c(c-3oc12)NC(=O)C(C)=CC=CC(C)C(O)C(C)C(O)C(C)C(OC(C)=O)C(C)C(OC)C=COC(C)(O6)C5=O (stereo not drawn) [Derivative No. 7]	–	1.25 (≈ 1.31 µM)	≤ 0.02	≤ 0.02	≤ 0.02	5 (≈ 5.23 µM)	5 (≈ 5.23 µM)	0.017 (≈ 0.0178 µM)	–	–	–	–	–	–	–
CCCOc1c(N2CCCC2)ccc2nc3c4c5c6c(C)c(O)c4c(=O)c(c-3oc12)NC(=O)C(C)=CC=CC(C)C(O)C(C)C(O)C(C)C(OC(C)=O)C(C)C(OC)C=COC(C)(O6)C5=O (stereo not drawn) [Derivative No. 9]	–	1.25 (≈ 1.37 µM)	0.08 (≈ 0.0877 µM)	0.04 (≈ 0.0439 µM)	0.08 (≈ 0.0877 µM)	> 10	> 10	0.035 (≈ 0.0384 µM)	–	–	–	–	–	–	–
CCCOc1c(N2CCN(CC(C)C)CC2)ccc2nc3c4c5c6c(C)c(O)c4c(=O)c(c-3oc12)NC(=O)C(C)=CC=CC(C)C(O)C(C)C(O)C(C)C(OC(C)=O)C(C)C(OC)C=COC(C)(O6)C5=O (stereo not drawn) [Derivative No. 10]	–	1.25 (≈ 1.27 µM)	0.16 (≈ 0.163 µM)	0.04 (≈ 0.0407 µM)	0.16 (≈ 0.163 µM)	> 10	> 10	0.07 (≈ 0.0712 µM)	–	–	–	–	–	–	–
COC1C=COC2(C)Oc3c(C)c(O)c4c(=O)c(c5oc6c(OC(C)C)c(N7CCCC7)ccc6nc-5c4c3C2=O)NC(=O)C(C)=CC=CC(C)C(O)C(C)C(O)C(C)C(OC(C)=O)C1C (stereo not drawn) [Derivative No. 11]	–	1.25 (≈ 1.37 µM)	0.04 (≈ 0.0439 µM)	≤ 0.02	0.08 (≈ 0.0877 µM)	> 10	> 10	0.017 (≈ 0.0186 µM)	17300	16200	13800	10100	–	–	–
CCN1CCN(c2ccc3nc4c5c6c7c(C)c(O)c5c(=O)c(c-4oc3c2OC(C)C)NC(=O)C(C)=CC=CC(C)C(O)C(C)C(O)C(C)C(OC(C)=O)C(C)C(OC)C=COC(C)(O7)C6=O)CC1 (stereo not drawn) [Derivative No. 12]	–	1.25 (≈ 1.31 µM)	≤ 0.02	≤ 0.02	≤ 0.02	5 (≈ 5.23 µM)	5 (≈ 5.23 µM)	0.017 (≈ 0.0178 µM)	–	–	–	–	–	–	–
COC1C=COC2(C)Oc3c(C)c(O)c4c(=O)c(c5oc6c(OC(C)C)c(N7CCN(CC(C)C)CC7)ccc6nc-5c4c3C2=O)NC(=O)C(C)=CC=CC(C)C(O)C(C)C(O)C(C)C(OC(C)=O)C1C (stereo not drawn) [Derivative No. 13]	–	1.25 (≈ 1.27 µM)	0.16 (≈ 0.163 µM)	0.04 (≈ 0.0407 µM)	0.16 (≈ 0.163 µM)	> 10	> 10	0.07 (≈ 0.0712 µM)	–	–	–	–	100	there was not observed any dead mouse	–
COC1C=COC2(C)Oc3c(C)c(O)c4c(=O)c(c5oc6c(OCC(C)C)c(N7CCN(CC(C)C)CC7)ccc6nc-5c4c3C2=O)NC(=O)C(C)=CC=CC(C)C(O)C(C)C(O)C(C)C(OC(C)=O)C1C (stereo not drawn) [Derivative No. 14]	–	0.63 (≈ 0.632 µM)	0.31 (≈ 0.311 µM)	0.08 (≈ 0.0802 µM)	0.08 (≈ 0.0802 µM)	> 10	> 10	–	–	–	–	–	–	–	–
COc1c(N2CCCC2)cc(C)c2nc3c4c5c6c(C)c(O)c4c(=O)c(c-3oc12)NC(=O)C(C)=CC=CC(C)C(O)C(C)C(O)C(C)C(OC(C)=O)C(C)C(OC)C=COC(C)(O6)C5=O (stereo not drawn) [Derivative No. 15]	–	1.25 (≈ 1.39 µM)	0.04 (≈ 0.0445 µM)	0.04 (≈ 0.0445 µM)	0.08 (≈ 0.0891 µM)	> 10	> 10	0.008 (≈ 0.00891 µM)	–	–	–	–	–	–	–
COc1c(N2CCN(C)CC2)cc(C)c2nc3c4c5c6c(C)c(O)c4c(=O)c(c-3oc12)NC(=O)C(C)=CC=CC(C)C(O)C(C)C(O)C(C)C(OC(C)=O)C(C)C(OC)C=COC(C)(O6)C5=O (stereo not drawn) [Derivative No. 16]	–	1.25 (≈ 1.35 µM)	≤ 0.02	≤ 0.02	≤ 0.02	5 (≈ 5.39 µM)	5 (≈ 5.39 µM)	–	–	–	–	–	–	–	–
COc1c(N2CCN(CC(C)C)CC2)cc(C)c2nc3c4c5c6c(C)c(O)c4c(=O)c(c-3oc12)NC(=O)C(C)=CC=CC(C)C(O)C(C)C(O)C(C)C(OC(C)=O)C(C)C(OC)C=COC(C)(O6)C5=O (stereo not drawn) [Derivative No. 17]	–	1.25 (≈ 1.29 µM)	0.08 (≈ 0.0825 µM)	≤ 0.02	0.04 (≈ 0.0413 µM)	> 10	> 10	0.07 (≈ 0.0722 µM)	–	–	–	–	100	there was not observed any dead mouse	–
CO[C@H]1/C=C/O[C@@]2(C)Oc3c(C)c(O)c4c(O)c(c(/C=N/N5CCN(C)CC5)c(O)c4c3C2=O)NC(=O)/C(C)=C\C=C\[C@H](C)[C@H](O)[C@@H](C)[C@@H](O)[C@@H](C)[C@H](OC(C)=O)[C@@H]1C [Rifampicin, reference compound]	–	10 (≈ 12.2 µM)	≤ 0.02	≤ 0.02	0.08 (≈ 0.0972 µM)	5 (≈ 6.08 µM)	> 10	0.6 (≈ 0.729 µM)	–	–	–	–	80	–	0.3 (≈ 0.365 µM)
